This passage reports IC50 results from US20120121591A1 (priority 2009, published 2012).

Common to all, as to format: cell-based
One assay concerns the target hKv1.3 (Homo sapiens, UniProt P22001). The assay can be described thus: cell-based. As to conditions: Kv1.3 (IWQ) IC50 (nM, Avg).
Assay [1] relates to IFN-g secretion from T cells in human whole blood. Conditions: read-out: WB (IFNg) IC50 (nM, Avg).
Assay [2] relates to IL-2 secretion from T cells in human whole blood. As to conditions: read-out: WB (IL-2) IC50 (nM, Avg).

Sequence of hKv1.3 (P22001 whole entry): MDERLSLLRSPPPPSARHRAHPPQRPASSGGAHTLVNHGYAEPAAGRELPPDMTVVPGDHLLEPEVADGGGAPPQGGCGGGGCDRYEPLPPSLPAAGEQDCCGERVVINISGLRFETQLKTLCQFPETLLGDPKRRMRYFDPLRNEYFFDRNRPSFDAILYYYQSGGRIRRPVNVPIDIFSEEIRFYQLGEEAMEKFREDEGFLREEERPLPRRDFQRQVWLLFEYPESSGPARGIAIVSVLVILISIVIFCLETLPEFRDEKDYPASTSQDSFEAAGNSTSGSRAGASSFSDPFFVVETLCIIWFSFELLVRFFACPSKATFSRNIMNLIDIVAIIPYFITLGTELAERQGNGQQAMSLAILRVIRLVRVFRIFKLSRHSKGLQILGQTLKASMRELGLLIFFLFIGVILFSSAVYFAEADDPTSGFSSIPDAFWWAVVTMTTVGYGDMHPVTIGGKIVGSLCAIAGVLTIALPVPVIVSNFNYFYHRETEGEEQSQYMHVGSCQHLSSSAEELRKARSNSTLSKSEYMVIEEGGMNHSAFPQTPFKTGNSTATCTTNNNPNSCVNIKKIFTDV

As a reminder, the IC50 is the concentration needed to halve the response being measured. With `CC[C@H](C)[C@@H]1NC(=O)[C@@H](NC(=O)[C@H](CO)NC(=O)[C@@H](N)CCCNC(=N)N)CSSC[C@@H](C(=O)O)NC(=O)[C@H]([C@@H](C)O)NC(=O)CNC(=O)[C@@H]2CSSC[C@@H]3NC(=O)[C@H](CCC(N)=O)NC(=O)[C@H](Cc4ccccc4)NC(=O)[C@H](C)NC(=O)[C@H]([C@@H](C)O)NC(=O)[C@H](CSSC[C@H](NC(=O)[C@H](Cc4cccc5ccccc45)NC(=O)[C@H](CO)NC(=O)[C@H](CC(C)C)NC(=O)[C@H](CCCNC(=N)N)NC(=O)[C@H](Cc4ccc(O)cc4)NC(=O)[C@H](CCCCN)NC(=O)[C@H](CCSC)NC(=O)[C@H](CO)NC(=O)[C@H](Cc4c[nH]cn4)NC(=O)[C@H](CCCCN)NC3=O)C(=O)N[C@@H](CCCNC(=N)N)C(=O)N[C@@H](CCCCN)C(=O)N[C@@H]([C@@H](C)O)C(=O)N2)NC(=O)[C@H](CCCNC(=N)N)NC(=O)[C@H](CO)NC(=O)[C@H](CCCCN)NC(=O)[C@@H]2CCCN2C(=O)[C@H]([C@@H](C)CC)NC(=O)[C@H]([C@@H](C)O)NC(=O)[C@H](CC(=O)O)NC1=O` [[1-Nal27]ShK], the IC50 against hKv1.3 was 0.144 nM; in assay [1], 2.84 nM; in assay [2], 1.07 nM.

Turning to `CC[C@H](C)[C@@H]1NC(=O)[C@@H](NC(=O)[C@H](CO)NC(=O)[C@@H](N)CCCNC(=N)N)CSSC[C@@H](C(=O)O)NC(=O)[C@H]([C@@H](C)O)NC(=O)CNC(=O)[C@@H]2CSSC[C@@H]3NC(=O)[C@H](CCC(N)=O)NC(=O)[C@H](Cc4ccccc4)NC(=O)[C@H](C)NC(=O)[C@H]([C@@H](C)O)NC(=O)[C@H](CSSC[C@H](NC(=O)[C@H](Cc4ccccc4)NC(=O)[C@H](CO)NC(=O)[C@H](CC(C)C)NC(=O)[C@H](CCCNC(=N)N)NC(=O)[C@H](Cc4ccc(O)cc4)NC(=O)[C@H](CCCCN)NC(=O)[C@H](CCSC)NC(=O)[C@H](CO)NC(=O)[C@H](Cc4c[nH]cn4)NC(=O)[C@H](CCCCN)NC3=O)C(=O)N[C@@H](Cc3cccc4ccccc34)C(=O)N[C@@H](CCCCN)C(=O)N[C@@H]([C@@H](C)O)C(=O)N2)NC(=O)[C@H](CCCNC(=N)N)NC(=O)[C@H](CO)NC(=O)[C@H](CCCCN)NC(=O)[C@@H]2CCCN2C(=O)[C@H]([C@@H](C)CC)NC(=O)[C@H]([C@@H](C)O)NC(=O)[C@H](CC(=O)O)NC1=O` [[1-Nal29]ShK], the values for the IC50 (against hKv1.3; in assay [1]; in assay [2]) were 3.3 nM, 8.08 nM and 4.72 nM, respectively.

Turning to `CC[C@H](C)[C@@H]1NC(=O)[C@@H](NC(=O)[C@H](CO)NC(=O)[C@H](C)N)CSSC[C@@H](C(=O)O)NC(=O)[C@H]([C@@H](C)O)NC(=O)CNC(=O)[C@@H]2CSSC[C@@H]3NC(=O)[C@H](CCC(N)=O)NC(=O)[C@H](Cc4ccccc4)NC(=O)[C@H](C)NC(=O)[C@H]([C@@H](C)O)NC(=O)[C@H](CSSC[C@H](NC(=O)[C@H](Cc4ccccc4)NC(=O)[C@H](CO)NC(=O)[C@H](CC(C)C)NC(=O)[C@H](CCCNC(=N)N)NC(=O)[C@H](Cc4ccc(O)cc4)NC(=O)[C@H](CCCCN)NC(=O)[C@H](CCSC)NC(=O)[C@H](CO)NC(=O)[C@H](Cc4c[nH]cn4)NC(=O)[C@H](CCCCN)NC3=O)C(=O)N[C@@H](CCCNC(=N)N)C(=O)N[C@@H](CCCCN)C(=O)N[C@@H]([C@@H](C)O)C(=O)N2)NC(=O)[C@H](CCCNC(=N)N)NC(=O)[C@H](CO)NC(=O)[C@H](CCCCN)NC(=O)[C@@H]2CCCN2C(=O)[C@H]([C@@H](C)CC)NC(=O)[C@H]([C@@H](C)O)NC(=O)[C@H](CC(=O)O)NC1=O` [[Ala1]ShK], the IC50 on hKv1.3 amounted to 0.168 nM; in assay [1], 0.102 nM; in assay [2], 0.073 nM.
